Test results reported in ChEMBL document CHEMBL5325467, “Discovery of novel hypoxia-activated, nitroimidazole constructed multi-target kinase inhibitors on the basis of AZD9291 for the treatment of human lung cancer” (Bioorg Med Chem, 2023).

Tests used:
[1] = target: Epidermal growth factor receptor (Homo sapiens, UniProt P00533, L858R/T790M); test: Inhibition of EGFR L858R/T790M mutant (unknown origin) by mobility shift assay
[2] = target: Epidermal growth factor receptor (Homo sapiens, UniProt P00533); test: Inhibition of wild type EGFR (unknown origin) by mobility shift assay
Sequence of Epidermal growth factor receptor (Homo sapiens, UniProt P00533) (P00533 whole entry): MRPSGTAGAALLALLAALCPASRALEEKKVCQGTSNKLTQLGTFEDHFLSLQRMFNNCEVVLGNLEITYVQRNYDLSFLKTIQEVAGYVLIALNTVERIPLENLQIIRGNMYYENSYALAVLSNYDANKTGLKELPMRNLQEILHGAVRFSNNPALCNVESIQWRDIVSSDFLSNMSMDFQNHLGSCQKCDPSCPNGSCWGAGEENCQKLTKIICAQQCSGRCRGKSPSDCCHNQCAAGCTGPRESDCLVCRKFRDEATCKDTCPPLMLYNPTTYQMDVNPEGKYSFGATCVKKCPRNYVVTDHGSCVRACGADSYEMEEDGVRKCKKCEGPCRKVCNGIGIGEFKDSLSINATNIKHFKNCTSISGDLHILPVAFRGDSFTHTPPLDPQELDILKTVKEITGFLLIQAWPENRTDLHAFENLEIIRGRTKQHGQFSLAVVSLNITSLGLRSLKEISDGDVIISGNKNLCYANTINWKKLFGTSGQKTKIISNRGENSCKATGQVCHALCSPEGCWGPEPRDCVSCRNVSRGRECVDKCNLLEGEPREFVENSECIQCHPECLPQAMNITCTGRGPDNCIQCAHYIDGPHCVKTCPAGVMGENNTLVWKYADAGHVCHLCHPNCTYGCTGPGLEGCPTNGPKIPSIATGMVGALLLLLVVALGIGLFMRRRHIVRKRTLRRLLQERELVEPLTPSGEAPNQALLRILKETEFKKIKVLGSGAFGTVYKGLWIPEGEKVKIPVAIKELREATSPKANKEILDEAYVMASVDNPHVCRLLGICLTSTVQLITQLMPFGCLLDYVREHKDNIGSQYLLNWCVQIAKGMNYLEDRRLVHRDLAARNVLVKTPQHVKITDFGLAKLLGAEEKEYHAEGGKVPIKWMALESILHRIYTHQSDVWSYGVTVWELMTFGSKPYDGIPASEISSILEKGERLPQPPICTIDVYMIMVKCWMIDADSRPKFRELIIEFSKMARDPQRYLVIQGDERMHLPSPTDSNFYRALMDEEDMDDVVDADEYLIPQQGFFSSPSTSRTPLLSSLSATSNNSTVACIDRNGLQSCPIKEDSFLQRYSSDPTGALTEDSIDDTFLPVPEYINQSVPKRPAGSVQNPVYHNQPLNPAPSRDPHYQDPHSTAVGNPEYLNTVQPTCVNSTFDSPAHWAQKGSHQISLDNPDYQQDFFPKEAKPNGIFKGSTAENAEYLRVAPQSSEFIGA

[3] = Selectivity index, ratio of IC50 for inhibition of wild type EGFR (unknown origin) to IC50 for inhibition of EGFR L858R/T790M mutant (unknown origin)

Sequence of Epidermal growth factor receptor (Homo sapiens, UniProt P00533, L858R/T790M) (P00533 25-1210 T790M/L858R limits assumed): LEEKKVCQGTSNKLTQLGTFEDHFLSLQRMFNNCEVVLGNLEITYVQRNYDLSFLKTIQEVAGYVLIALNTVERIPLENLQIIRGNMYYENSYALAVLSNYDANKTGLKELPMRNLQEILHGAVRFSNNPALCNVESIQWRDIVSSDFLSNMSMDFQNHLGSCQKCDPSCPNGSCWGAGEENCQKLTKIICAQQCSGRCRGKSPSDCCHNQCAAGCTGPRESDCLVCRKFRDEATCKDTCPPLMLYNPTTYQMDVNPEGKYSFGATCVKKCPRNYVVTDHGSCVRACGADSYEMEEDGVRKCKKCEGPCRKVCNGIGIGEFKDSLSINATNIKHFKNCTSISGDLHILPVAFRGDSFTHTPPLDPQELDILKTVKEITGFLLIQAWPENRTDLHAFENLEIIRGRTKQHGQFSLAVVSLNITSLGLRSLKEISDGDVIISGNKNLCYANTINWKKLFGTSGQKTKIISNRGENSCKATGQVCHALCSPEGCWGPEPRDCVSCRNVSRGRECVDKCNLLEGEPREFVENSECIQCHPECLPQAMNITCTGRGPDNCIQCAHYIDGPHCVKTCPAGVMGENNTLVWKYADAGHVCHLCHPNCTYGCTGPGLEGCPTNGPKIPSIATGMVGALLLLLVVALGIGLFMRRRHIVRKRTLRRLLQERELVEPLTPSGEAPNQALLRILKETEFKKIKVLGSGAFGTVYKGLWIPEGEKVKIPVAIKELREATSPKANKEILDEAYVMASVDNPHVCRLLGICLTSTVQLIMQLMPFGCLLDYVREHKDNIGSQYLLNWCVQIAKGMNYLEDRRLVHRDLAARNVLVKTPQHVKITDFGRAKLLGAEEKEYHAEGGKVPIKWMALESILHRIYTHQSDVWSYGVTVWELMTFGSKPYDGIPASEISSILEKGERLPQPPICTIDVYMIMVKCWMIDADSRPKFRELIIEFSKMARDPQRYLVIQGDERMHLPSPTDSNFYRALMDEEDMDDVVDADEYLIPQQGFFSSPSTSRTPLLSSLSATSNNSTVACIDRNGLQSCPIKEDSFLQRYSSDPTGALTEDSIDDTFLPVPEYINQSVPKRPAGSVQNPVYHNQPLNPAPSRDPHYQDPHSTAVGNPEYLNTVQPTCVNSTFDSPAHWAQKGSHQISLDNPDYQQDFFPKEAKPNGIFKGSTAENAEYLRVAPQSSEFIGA

Which IC50 [1] does the source give for `Cn1cc(-c2ccnc(Nc3cccc(C(=O)NCCOCCn4ccnc4[N+](=O)[O-])c3)n2)c2ccccc21` here?
Its IC50 is 0.818 µM.

What does the source list for `Cn1cc(-c2ccnc(Nc3cccc(OCCOCCn4ccnc4[N+](=O)[O-])c3)n2)c2ccccc21`?
IC50 [2]: 4 µM; Ratio IC50 [3]: 9.05; IC50 [1]: 0.442 µM

With `Cn1cc(-c2ccnc(Nc3cccc(OCCCCn4ccnc4[N+](=O)[O-])c3)n2)c2ccccc21` as the compound, how does the IC50 [2] read?
Its IC50 is 3.57 µM.

And the Ratio IC50 [3]?
The Ratio IC50 was 15.7.

And the IC50 [1]?
The IC50 was 0.227 µM.

With `Cc1cc(Nc2nccc(-c3cn(C)c4ccccc34)n2)ccc1OCCOCCn1ccnc1[N+](=O)[O-]` as the compound, how does the IC50 [2] read?
Its IC50 is 9.2 µM.

And the Ratio IC50 [3]?
Its Ratio IC50 is 20.2.

What about the IC50 [1] of the same compound?
The IC50 was 0.456 µM.

Which IC50 [2] does the source give for `Cn1cc(-c2ccnc(Nc3cccc(OCCCCn4cnc([N+](=O)[O-])c4)c3)n2)c2ccccc21` here?
The IC50 was 1.88 µM.

And the Ratio IC50 [3]?
Its Ratio IC50 is 8.08.

What about the IC50 [1] of the same compound?
The IC50 was 0.233 µM.

For `CC(=O)c1ccc(Nc2nccc(-c3cn(C)c4ccccc34)n2)cc1OCCOCCn1ccnc1[N+](=O)[O-]`, which IC50 [2] is on record?
Its IC50 is 7.44 µM.

What about the Ratio IC50 [3] of the same compound?
The Ratio IC50 was 28.4.

What about the IC50 [1] of the same compound?
Its IC50 is 0.262 µM.

For `Cc1ccc(OCCOCCn2ccnc2[N+](=O)[O-])cc1Nc1nccc(-c2cn(C)c3ccccc23)n1`, which IC50 [1] is on record?
The IC50 was 1.31 µM.

Which IC50 [2] does the source give for `Cn1cc(-c2ccnc(Nc3ccc(OCCOCCn4ccnc4[N+](=O)[O-])cc3)n2)c2ccccc21` here?
Its IC50 is 9.37 µM.

What about the Ratio IC50 [3] of the same compound?
The Ratio IC50 was 18.3.

What about the IC50 [1] of the same compound?
The IC50 was 0.512 µM.
